Test results reported in patent publication US12403144B2, “HECT E3 ligase inhibitors and uses thereof” (IFOM FONDAZIONE ISTITUTO FIRC DI ONCOLOGIA MOLECOLARE, priority 2019, dated 2025).

Biological target: T1, HECT domain of NEDD4 (Homo sapiens, UniProt P46934)
T1 construct: crystal structure of the HECT domain of NEDD4 in complex with compound 12; made in house
T1 sequence (P46934 519-900 isoform P46934-4 limits assumed): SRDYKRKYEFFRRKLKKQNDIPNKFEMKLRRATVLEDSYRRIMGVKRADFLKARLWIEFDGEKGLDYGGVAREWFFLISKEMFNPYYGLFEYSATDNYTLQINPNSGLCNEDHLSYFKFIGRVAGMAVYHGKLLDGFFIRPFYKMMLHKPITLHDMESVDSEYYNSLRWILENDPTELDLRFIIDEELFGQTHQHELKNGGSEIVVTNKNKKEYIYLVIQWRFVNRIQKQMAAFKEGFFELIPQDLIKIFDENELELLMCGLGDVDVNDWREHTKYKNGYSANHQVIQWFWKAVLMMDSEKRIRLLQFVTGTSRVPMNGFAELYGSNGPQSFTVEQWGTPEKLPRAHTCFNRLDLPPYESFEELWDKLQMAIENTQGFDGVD
Test: X-Ray crystal structure of the HECT domain of NEDD4 in complex with compound
Format: binding
Details: crystal soaking; thiol group of Cys627 attacks the α,β-unsaturated ester
Excerpt: FIG. 2: Structure of NEDD4 HECT in complex with compound 12. a. Compound 12 (dark grey sticks representation) binding to the HECT of NEDD4 (light grey), with a Fo-Fc map, calculated omitting the ligand, contoured at 2.5α level (represented as a grey mesh). b. Details of ligand binding: compound 12 and covalently or hydrogen-bonded NEDD4 residues are in ball-and-stick representation, hydrogen bond is shown as dotted line; spoked arcs represent protein residues making nonbonded contacts with the ligand.
FIG. 3: Structure of apo NEDD4 HECT superimposed with the one of the complex HECT-compound 12. Changes in the HECT structure upon compound 12 binding. Apo-HECT (pdb entry 2xbf, version 1.2, 13 Jul. 2011) depicted as dark grey ribbon; complex depicted as light grey ribbon. Side chains of residues Glu554 and Tyr634, and to a less extent those of Tyr604 and Tyr605, as well as main and side chain of residue Cys627 (covalently bound to the inhibitor) are rearranged upon inhibitor binding.
The inventors obtained by X-Ray the crystal structure of the HECT domain of NEDD4 in complex with compound 12. […]

binding mode in crystal structure of NEDD4 HECT complex: covalent link to the protein
SMILES: CCOC(=O)/C=C/CNCCCCN1c2ccccc2CCc2ccc(Cl)cc21.O=C(O)/C=C\C(=O)O [Compound 12, Ethyl (E)-4-[4-(3-chloro-10,11-dihydro-5H-dibenzo[b,f]azepin-5-yl)butylamino]but-2-enoate maleate]
